Data taken from the NIST ThermoML archive (doi:10.1021/je060243s).
Values joined by “and” are separate entries in the source; they are usually repeats but may differ in a detail not shown here. Equal values may be shown once. Numbers after ± are expanded uncertainties.

Test: wn = mass fraction of the nth substance listed
Settings: Liquid, Pulse-echo method, w2 = 0.5

FC(F)C(F)(F)F [pentafluoroethane] + FCF
speed of sound
Settings | 253.09 K | 258.09 K | 265.61 K | 273.12 K | 280.72 K | 288.2 K
830 kPa | – | – | – | 574.5 ± 1.3 m/s | – | –
1000 kPa | – | 656.5 ± 1.3 m/s | – | – | – | –
1030 kPa | – | – | – | – | 535.2 ± 1.3 m/s | –
1060 kPa | – | – | – | – | 535.5 ± 1.3 m/s | –
1120 kPa | – | 657.6 ± 1.3 m/s | – | – | – | –
1150 kPa | – | – | – | – | 536.9 ± 1.3 m/s | –
1180 kPa | 684.1 ± 1.3 m/s | – | – | – | – | –
1190 kPa | – | – | 618.9 ± 1.3 m/s | – | – | –
1220 kPa | – | – | – | 578.8 ± 1.3 m/s | – | –
1260 kPa | 684.8 ± 1.3 m/s | 658.8 ± 1.3 m/s | – | – | 538 ± 1.3 m/s | –
1340 kPa | – | – | 620 ± 1.3 m/s | – | – | –
1350 kPa | – | – | – | – | – | 496 ± 1.3 m/s
1360 kPa | – | – | – | 580.1 ± 1.3 m/s | – | –
1380 kPa | 685.8 ± 1.3 m/s | 659.7 ± 1.3 m/s | – | – | 539.4 ± 1.3 m/s | –
1420 kPa | – | – | – | – | – | 497.2 ± 1.3 m/s
1480 kPa | – | – | – | – | – | 498 ± 1.3 m/s
1500 kPa | 686.8 ± 1.3 m/s | 660.8 ± 1.3 m/s and 661 ± 1.3 m/s | 621.6 ± 1.3 m/s | 581.6 ± 1.3 m/s | 540.9 ± 1.3 m/s | –
1550 kPa | – | – | – | – | – | 499 ± 1.3 m/s
1620 kPa | 687.7 ± 1.3 m/s | – | – | – | – | –
1630 kPa | – | 662.2 ± 1.3 m/s | – | – | 542.3 ± 1.3 m/s | –
1750 kPa | 688.8 ± 1.3 m/s | 663.1 ± 1.3 m/s | 623.8 ± 1.3 m/s | 584.2 ± 1.3 m/s | 543.8 ± 1.3 m/s | –
2010 kPa | 690.6 ± 1.3 m/s | 665.1 ± 1.3 m/s | 626.1 ± 1.3 m/s | 586.8 ± 1.3 m/s | 546.7 ± 1.3 m/s | –
2250 kPa | 692.6 ± 1.3 m/s | 667.1 ± 1.3 m/s | 628.3 ± 1.3 m/s | 589.4 ± 1.3 m/s | 549.6 ± 1.3 m/s | –
2510 kPa | 694.3 ± 1.3 m/s | 669.2 ± 1.3 m/s | 630.7 ± 1.3 m/s | 591.9 ± 1.3 m/s | 552.3 ± 1.3 m/s | –
2750 kPa | 696.4 ± 1.3 m/s | 671.4 ± 1.3 m/s | 633 ± 1.3 m/s | 594.1 ± 1.3 m/s | 555 ± 1.3 m/s | –
3010 kPa | 698.4 ± 1.3 m/s | 673.4 ± 1.3 m/s | 635.2 ± 1.3 m/s | 596.9 ± 1.3 m/s | 557.9 ± 1.3 m/s | –
3500 kPa | 702.3 ± 1.3 m/s | 677.1 ± 1.3 m/s | 639.4 ± 1.3 m/s | 601.6 ± 1.3 m/s | 563.2 ± 1.3 m/s | –
4000 kPa | 705 ± 1.3 m/s | 681.1 ± 1.3 m/s | 644 ± 1.3 m/s | 606.4 ± 1.3 m/s | 568.5 ± 1.3 m/s | –
4500 kPa | 709.5 ± 1.3 m/s | 685.3 ± 1.3 m/s | 648.1 ± 1.3 m/s | 611 ± 1.3 m/s | 573.7 ± 1.3 m/s | –
5000 kPa | 713.3 ± 1.3 m/s | 689.1 ± 1.3 m/s | 652.1 ± 1.3 m/s | 615.4 ± 1.3 m/s | 579 ± 1.3 m/s | –
6010 kPa | 720.6 ± 1.3 m/s | 696.6 ± 1.3 m/s | 660.6 ± 1.3 m/s | 624.4 ± 1.3 m/s | 588.6 ± 1.3 m/s | –
7010 kPa | 727.4 ± 1.3 m/s | 703.9 ± 1.3 m/s | 668.4 ± 1.3 m/s | 633.3 ± 1.3 m/s | 598.3 ± 1.3 m/s | –
8000 kPa | 734.2 ± 1.3 m/s | 711 ± 1.3 m/s | 676.1 ± 1.3 m/s | 641.5 ± 1.3 m/s | 607.1 ± 1.3 m/s | –
9000 kPa | 740.8 ± 1.3 m/s | 718.1 ± 1.3 m/s | 683.8 ± 1.3 m/s | 649.3 ± 1.3 m/s | 615.9 ± 1.3 m/s | –
10000 kPa | 747.5 ± 1.3 m/s | 724.8 ± 1.3 m/s | 691 ± 1.3 m/s | 657.6 ± 1.3 m/s | 624.5 ± 1.3 m/s | –
12000 kPa | 760.2 ± 1.3 m/s | 738.2 ± 1.3 m/s | 705.2 ± 1.3 m/s | 672.7 ± 1.3 m/s | 640.6 ± 1.3 m/s | –
14000 kPa | 772.5 ± 1.3 m/s | 751.2 ± 1.3 m/s | 718.9 ± 1.3 m/s | 687.3 ± 1.3 m/s | 656.1 ± 1.3 m/s | –
16010 kPa | 784.5 ± 1.3 m/s | 763.4 ± 1.3 m/s | 732.1 ± 1.3 m/s | 701.1 ± 1.3 m/s | 670.9 ± 1.3 m/s | –
18000 kPa | 795.3 ± 1.3 m/s | 775 ± 1.3 m/s | 744.4 ± 1.3 m/s | 714.5 ± 1.3 m/s | 684.9 ± 1.3 m/s | –
20000 kPa | 806.9 ± 1.3 m/s | 786.7 ± 1.3 m/s | 756.2 ± 1.3 m/s | 727 ± 1.3 m/s | 698.3 ± 1.3 m/s | –
23000 kPa | 822.9 ± 1.3 m/s | 803.2 ± 1.3 m/s | 773.6 ± 1.3 m/s | 745.4 ± 1.3 m/s | 717 ± 1.3 m/s | –
26000 kPa | 837.9 ± 1.3 m/s | 818.7 ± 1.3 m/s | 790.1 ± 1.3 m/s | 762.7 ± 1.3 m/s | 735.5 ± 1.3 m/s | –
29010 kPa | 852.8 ± 1.3 m/s | 833.7 ± 1.3 m/s | 806.2 ± 1.3 m/s | 779 ± 1.3 m/s | 752.6 ± 1.3 m/s | –
32000 kPa | 867.2 ± 1.3 m/s | 848.7 ± 1.3 m/s | 821.5 ± 1.3 m/s | 794.8 ± 1.3 m/s | 769.2 ± 1.3 m/s | –
35000 kPa | 880.5 ± 1.3 m/s | 862.6 ± 1.3 m/s | 835.5 ± 1.3 m/s | 809.6 ± 1.3 m/s | 785.1 ± 1.3 m/s | –
40000 kPa | 902.6 ± 1.3 m/s | 885 ± 1.3 m/s | 858.8 ± 1.3 m/s | 833.5 ± 1.3 m/s | 809.7 ± 1.3 m/s | –
45000 kPa | 923.6 ± 1.3 m/s | 906.3 ± 1.3 m/s | 880.8 ± 1.3 m/s | 856.4 ± 1.3 m/s | 833.1 ± 1.3 m/s | –
50000 kPa | 943.8 ± 1.3 m/s | 926.7 ± 1.3 m/s | 902 ± 1.3 m/s | 877.8 ± 1.3 m/s | 855.3 ± 1.3 m/s | –
55000 kPa | 962.8 ± 1.3 m/s | 946.6 ± 1.3 m/s | 922.4 ± 1.3 m/s | 898.7 ± 1.3 m/s | 876.4 ± 1.3 m/s | –
60000 kPa | 981.2 ± 1.3 m/s | 965.6 ± 1.3 m/s | 941.6 ± 1.3 m/s | 919 ± 1.3 m/s | 898.9 ± 1.3 m/s | –
65000 kPa | 999.5 ± 1.3 m/s | 983.3 ± 1.3 m/s | 959.9 ± 1.3 m/s | 938 ± 1.3 m/s | 916.7 ± 1.3 m/s | –

Settings | speed of sound [m/s]
273.12 K | 574.5 ± 1.3
280.72 K | 535.2 ± 1.3
